Assay results from ChEMBL document CHEMBL1143799, “Synthesis and primary cytotoxicity evaluation of new imidazo[2,1-b]thiazole derivatives” (2007).

Assays:
Format in all cases: functional
[1] = system: SK-MEL-5; test: Growth inhibition of human SK-MEL-5 cells after 48 hrs by SRB protein assay; conditions: SK-MEL-5, 48 h
[2] = system: NCI-H460; test: Growth inhibition of human NCI-H460 cells after 48 hrs by SRB protein assay; conditions: NCI-H460, 48 h
[3] = system: COLO 205; test: Growth inhibition of human COLO205 cells after 48 hrs by SRB protein assay; conditions: COLO 205, 48 h
[4] = system: HOP-92; test: Growth inhibition of human HOP92 cells after 48 hrs by SRB protein assay; conditions: HOP-92, 48 h
[5] = system: OVCAR-5; test: Growth inhibition of human OVCAR5 cells after 48 hrs by SRB protein assay; conditions: OVCAR-5, 48 h
[6] = Growth inhibition of human 786O cells after 48 hrs by SRB protein assay; conditions: 786-0, 48 h
[7] = system: OVCAR-8; test: Growth inhibition of human OVCAR8 cells after 48 hrs by SRB protein assay; conditions: OVCAR-8, 48 h
[8] = system: UACC-62; test: Growth inhibition of human UACC62 cells after 48 hrs by SRB protein assay; conditions: UACC-62, 48 h
[9] = system: RPMI-8226; test: Growth inhibition of human RPMI8226 cells after 48 hrs by SRB protein assay; conditions: RPMI-8226, 48 h
[10] = system: M14; test: Growth inhibition of human M14 cells after 48 hrs by SRB protein assay; conditions: M14, 48 h
[11] = system: UO-31; test: Growth inhibition of human UO31 cells after 48 hrs by SRB protein assay; conditions: UO-31, 48 h
[12] = system: EKVX; test: Growth inhibition of human EKVX cells after 48 hrs by SRB protein assay
[13] = system: CAKI-1; test: Growth inhibition of human CAKI1 cells after 48 hrs by SRB protein assay; conditions: CAKI-1, 48 h
[14] = system: SNB-19; test: Growth inhibition of human SNB19 cells after 48 hrs by SRB protein assay; conditions: SNB-19, 48 h
[15] = system: KM12; test: Growth inhibition of human KM12 cells after 48 hrs by SRB protein assay; conditions: KM12, 48 h
[16] = system: RXF 393; test: Growth inhibition of human RXF393 cells after 48 hrs by SRB protein assay; conditions: RXF 393, 48 h
[17] = system: SNB-75; test: Growth inhibition of human SNB75 cells after 48 hrs by SRB protein assay; conditions: SNB-75, 48 h
[18] = system: PC-3; test: Growth inhibition of human PC3 cells after 48 hrs by SRB protein assay; conditions: PC-3, 48 h
[19] = system: NCI-H23; test: Growth inhibition of human NCI-H23 cells after 48 hrs by SRB protein assay; conditions: NCI-H23, 48 h
[20] = system: CCRF-CEM; test: Growth inhibition of human CCRF-CEM cells after 48 hrs by SRB protein assay
[21] = system: IGROV-1; test: Growth inhibition of human IGROV1 cells after 48 hrs by SRB protein assay; conditions: IGROV-1, 48 h
[22] = system: DU-145; test: Growth inhibition of human DU145 cells after 48 hrs by SRB protein assay; conditions: DU-145, 48 h
[23] = system: SN12C; test: Growth inhibition of human SN12C cells after 48 hrs by SRB protein assay
[24] = system: U-251; test: Growth inhibition human U251 of cells after 48 hrs by SRB protein assay; conditions: U-251, 48 h
[25] = system: MCF7; test: Growth inhibition of human MCF7 cells after 48 hrs by SRB protein assay; conditions: MCF7, 48 h
[26] = system: A549; test: Growth inhibition of human A549 cells after 48 hrs by SRB protein assay; conditions: A549, 48 h
[27] = system: SK-OV-3; test: Growth inhibition of human SK-OV-3 cells after 48 hrs by SRB protein assay; conditions: SK-OV-3, 48 h
[28] = system: MDA-MB-231; test: Growth inhibition of MDA-MB-231 cells after 48 hrs by SRB protein assay; conditions: Homo sapiens, MDA-MB-231, 48 h
[29] = system: T47D; test: Growth inhibition of human T47D cells after 48 hrs by SRB protein assay
[30] = system: ACHN; test: Growth inhibition of human ACHN cells after 48 hrs by SRB protein assay
[31] = system: NCI-H522; test: Growth inhibition of human NCI-H522 cells after 48 hrs by SRB protein assay; conditions: NCI-H522, 48 h
[32] = system: HCC 2998; test: Growth inhibition of human HCC2998 cells after 48 hrs by SRB protein assay; conditions: HCC 2998, 48 h
[33] = system: SK-MEL-28; test: Growth inhibition of human SK-MEL-28 cells after 48 hrs by SRB protein assay; conditions: SK-MEL-28, 48 h
[34] = system: UACC-257; test: Growth inhibition of human UACC257 cells after 48 hrs by SRB protein assay; conditions: UACC-257, 48 h
[35] = system: SF-539; test: Growth inhibition of human SF539 cells after 48 hrs by SRB protein assay; conditions: SF-539, 48 h
[36] = system: MOLT-4; test: Growth inhibition of human MOLT4 cells after 48 hrs by SRB protein assay; conditions: MOLT-4, 48 h
[37] = system: BT-549; test: Growth inhibition of human BT549 cells after 48 hrs by SRB protein assay; conditions: BT-549, 48 h
[38] = system: NCI-H322M; test: Growth inhibition of human NCI-H322M cells after 48 hrs by SRB protein assay
[39] = system: SF-295; test: Growth inhibition of human SF295 cells after 48 hrs by SRB protein assay; conditions: SF-295, 48 h

Nc1nc2[nH]cnc2c(=S)[nH]1 [THIOGUANINE]
GI50 [1]: 3.55 µM
TGI ([1]; read-out: Log TGI (converted)): 16.6 µM
GI50 [2]: 0.676 µM
TGI ([2]; read-out: Log TGI (converted)): 20 µM
GI50 [3]: 1.7 µM
TGI ([3]; read-out: Log TGI (converted)): 8.91 µM
GI50 [4]: 0.741 µM
TGI ([4]; read-out: Log TGI (converted)): 24 µM
GI50 [5]: 0.661 µM
TGI ([5]; read-out: Log TGI (converted)): 47.9 µM
GI50 [6]: 0.832 µM
TGI ([6]; read-out: Log TGI (converted)): 107 µM
GI50 [7]: 0.692 µM
TGI ([7]; read-out: Log TGI (converted)): 60.3 µM
GI50 [8]: 0.501 µM
TGI ([8]; read-out: Log TGI (converted)): 4.57 µM
GI50 [9]: 0.398 µM
TGI ([9]; read-out: Log TGI (converted)): 20.9 µM
GI50 [10]: 0.589 µM
TGI ([10]; read-out: Log TGI (converted)): 14.5 µM
GI50 [11]: 1.48 µM
TGI ([11]; read-out: Log TGI (converted)): 32.4 µM
GI50 [12]: 1.91 µM
TGI ([12]; read-out: Log TGI (converted)): 123 µM
GI50 [13]: 0.537 µM
TGI ([13]; read-out: Log TGI (converted)): 15.8 µM
GI50 [14]: 79.4 µM
TGI ([14]; read-out: Log TGI (converted)): 245 µM
GI50 [15]: 1.74 µM
TGI ([15]; read-out: Log TGI (converted)): 31.6 µM
GI50 [16]: 0.759 µM
TGI ([16]; read-out: Log TGI (converted)): 7.08 µM
GI50 [17]: 1.45 µM
TGI ([17]; read-out: Log TGI (converted)): 41.7 µM
GI50 [18]: 1.78 µM
TGI ([18]; read-out: Log TGI (converted)): 174 µM
GI50 [19]: 1.07 µM
TGI ([19]; read-out: Log TGI (converted)): 22.9 µM
GI50 [20]: 0.155 µM
TGI ([20]; read-out: Log TGI (converted)): 25.7 µM
GI50 [21]: 4.79 µM
TGI ([21]; read-out: Log TGI (converted)): 145 µM
GI50 [22]: 0.794 µM
TGI ([22]; read-out: Log TGI (converted)): 135 µM
GI50 [23]: 1.26 µM
TGI ([23]; read-out: Log TGI (converted)): 174 µM
GI50 [24]: 4.9 µM
TGI ([24]; read-out: Log TGI (converted)): 240 µM
GI50 [25]: 0.708 µM
TGI ([25]; read-out: Log TGI (converted)): 42.7 µM
GI50 [26]: 3.55 µM
TGI ([26]; read-out: Log TGI (converted)): 105 µM
GI50 [27]: 0.55 µM
TGI ([27]; read-out: Log TGI (converted)): 16.6 µM
GI50 [28]: 1.95 µM
TGI ([28]; read-out: Log TGI (converted)): 166 µM
GI50 [29]: 2.04 µM
TGI ([29]; read-out: Log TGI (converted)): 107 µM
GI50 [30]: 1.95 µM
TGI ([30]; read-out: Log TGI (converted)): 112 µM
GI50 [31]: 0.912 µM
TGI ([31]; read-out: Log TGI (converted)): 6.31 µM
GI50 [32]: 1 µM
TGI ([32]; read-out: Log TGI (converted)): 18.2 µM
GI50 [33]: 8.91 µM
TGI ([33]; read-out: Log TGI (converted)): 155 µM
GI50 [34]: 2 µM
TGI ([34]; read-out: Log TGI (converted)): 97.7 µM
GI50 [35]: 1.02 µM
TGI ([35]; read-out: Log TGI (converted)): 69.2 µM
GI50 [36]: 0.269 µM
TGI ([36]; read-out: Log TGI (converted)): 15.5 µM
GI50 [37]: 3.63 µM
TGI ([37]; read-out: Log TGI (converted)): 162 µM
GI50 [38]: 7.41 µM
TGI ([38]; read-out: Log TGI (converted)): 224 µM
GI50 [39]: 1.02 µM
TGI ([39]; read-out: Log TGI (converted)): 158 µM
